The record followed here is patent publication US5122523A, “N-acylamino acid derivatives and their pharmaceutical compositions” (Banyu Pharmaceutical Co., Ltd., priority 1987, dated 1992).

For this test, the target named is T1, human plasma renin (Homo sapiens, UniProt P00797).
T1 construct: from tissue; host or cells: human plasma
T1 sequence (P00797 67-406): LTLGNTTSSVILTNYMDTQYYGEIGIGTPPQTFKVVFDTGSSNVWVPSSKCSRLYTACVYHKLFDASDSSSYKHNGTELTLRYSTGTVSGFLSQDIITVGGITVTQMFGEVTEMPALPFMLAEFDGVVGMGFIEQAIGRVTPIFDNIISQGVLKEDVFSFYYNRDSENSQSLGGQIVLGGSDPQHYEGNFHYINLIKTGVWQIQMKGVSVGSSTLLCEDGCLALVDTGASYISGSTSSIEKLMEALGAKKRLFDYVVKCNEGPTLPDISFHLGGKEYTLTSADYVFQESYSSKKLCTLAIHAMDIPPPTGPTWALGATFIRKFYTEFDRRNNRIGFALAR
As to the kind of experiment: Renin inhibiting activities (human plasma, angiotensin I by radioimmunoassay). In kind it is biochemical. The conditions noted are these: pH7.4, 37° C., one hour. As for the experimental part:
TEST EXAMPLE 1: Renin inhibiting activities
To 156 μl of a 0.2M sodium phosphate buffer solution (pH7.4), 40 μl of a solution mixture of 34 mM 8-hydroxyquinoline and 100 mM disodium ethylenediamine tetraacetate, 4 μl of dimethyl sulfoxide or a dimethyl sulfoxide solution of an inhibitor and 200 μl of human plasma were added and reacted at 37° C. for one hour. Then, pepstatin was added thereto to terminate the reaction, and the amount of the resulting angiotension I was measured by radio immunoassay whereby the inhibiting activity was determined.
The IC50 is the midpoint of a concentration-inhibition curve. Low readings indicate greater potency in that assay, high ones weaker potency in that assay. For `CCCC[C@H](NC(=O)[C@H](Cc1cccc2ccccc12)CS(=O)(=O)CC)C(=O)N[C@@H](CC(C)C)[C@@H](O)[C@@H](O)CN1CCOCC1` [Example 19, (2S,3R,4S)-4-{L-N-[(2S)-3-ethylsulfonyl-2-(1-naphthylmethyl)propionyl]norleucyl}amino-6-methyl-1-morpholino-2,3-heptanediol], the IC50 came out at 8.3 nM.

Compound `CCCC[C@H](NC(=O)[C@H](Cc1cccc2ccccc12)C[S+]([O-])c1ncccn1)C(=O)N[C@@H](CC(C)C)[C@@H](O)CC(CC)C(=O)NCC(C)C` (mixture of isomers) [Example 7, (2RS,4S,5S)-5-{L-N-[(2S)-3-(pyrimidin-2-yl)sulfinyl-2-(1-naphthylmethyl)propionyl]norleucyl}amino-2-ethyl-4-hydroxy-7-methyloctanoic acid isobutylamide] showed an IC50 of 0.83 nM.

As to `CCCC[C@H](NC(=O)C(Cc1cccc2ccccc12)CS(=O)(=O)c1nnnn1C)C(=O)N[C@@H](CC(C)C)[C@@H](O)C[C@H](CC)C(=O)NCC(C)C` (single isomer, unassigned) [Example 4, (2S,4S,5S)-5-{L-N-[(2R or S)-3-(1-methyltetrazol-5-yl)sulfonyl-2-(1-naphthylmethyl)propionyl]norleucyl}amino-2-ethyl-4-hydroxy-7-methyloctanoic acid isobutylamide], the IC50 is 0.96 nM. The IC50 values of the last two compounds are within 1.5-fold of each other.

As for `CCCC[C@H](NC(=O)[C@H](Cc1cccc2ccccc12)CS(=O)(=O)CC)C(=O)N[C@@H](CC1CCCCC1)C(O)C(O)CSC` (single isomer, unassigned) [Example 21, (2RS,3R or S,4S)-4-{L-N-[(2S)-3-ethylsulfonyl-2-(1-naphthylmethyl)propionyl]norleucyl}amino-5-cyclohexyl-1-methylthio-2,3-pentanediol], the IC50 amounted to 8.9 nM.

`CCCC[C@H](NC(=O)C(CCCSCC)Cc1cccc2ccccc12)C(=O)N[C@@H](CC(C)C)[C@@H](O)CC(CC)C(=O)NCC(C)C` (single isomer, unassigned) [Example 12, (2RS,4S,5S)-5-{L-N-[(2R or S)-5-ethylthio-2-(1-naphthylmethyl)pentanoyl]norleucyl}amino-2-ethyl-4-hydroxy-7-methyloctanoic acid isobutylamide]: the IC50 is 9.7 nM.

Take `CCCC[C@H](NC(=O)[C@H](Cc1cccc2ccccc12)C[S+]([O-])CC)C(=O)N[C@@H](CC1CCCCC1)[C@@H](O)[C@@H](O)CN1CCOCC1` (stereo partly drawn) [Example 49(A), (2S,3R,4S)-4-{L-N-[(2S)-3-ethylsulfinyl-2-(1-naphthylmethyl)propionyl]norleucyl}amino-5-cyclohexyl-1-morpholino-2,3-pentanediol]: 6.1 nM corresponded to half-maximal inhibition (IC50).

In turn, `CC(C)[S+]([O-])C[C@@H](Cc1cccc2ccccc12)C(=O)N[C@@H](Cc1c[nH]cn1)C(=O)N[C@@H](CC1CCCCC1)[C@@H](O)[C@@H](O)CN1CCOCC1` (stereo partly drawn) [Example 35, (2S,3R,4S)-4-{L-N^α -[(2S)-3-isopropylsulfinyl-2-(1-naphthylmethyl)propionyl]histidyl}amino-5-cyclohexyl-1-morpholino-2,3-pentanediol] came in with a half-inhibitory concentration (IC50) of 5.9 nM. This IC50 and that of the compound before are within 1.5-fold of each other.

`CCC(C[C@H](O)[C@H](CC(C)C)NC(=O)[C@H](Cc1c[nH]cn1)NC(=O)[C@H](Cc1cccc2cccnc12)CS(=O)(=O)CC)C(=O)NCC(C)C` (stereo partly drawn) [Example 11, (2RS,4S,5S)-5-{L-N^α -[2(S)-3-ethylsulfonyl-2-(8-quinolylmethyl)propionyl]histidyl}amino-2-ethyl-4-hydroxy-7-methyloctanoic acid isobutylamide]: half-maximal inhibition (IC50) was put at 3.1 nM.

As for `CCCC[C@H](NC(=O)C(Cc1cccc2ccccc12)CS(=O)(=O)c1ncccn1)C(=O)N[C@@H](CC(C)C)[C@@H](O)CC(CC)C(=O)NCC(C)C` (single isomer, unassigned) [Example 2, (2RS,4S,5S)-5-{L-N-[(2R or S)-3-(pyrimidin-2-yl)sulfonyl-2-(1-naphthylmethyl)propionyl]norleucyl}amino-2-ethyl-4-hydroxy-7-methyloctanoic acid isobutylamide], the IC50 was 0.17 nM.

As for `CCCC[C@H](NC(=O)[C@@H](CSc1ncccn1)Cc1cccc2ccccc12)C(=O)N[C@@H](CC(C)C)[C@@H](O)CC(CC)C(=O)NCC(C)C` (mixture of isomers) [Example 6, (2RS,4S,5S)-5-{L-N-[(2S)-3-(pyrimidin-2-yl)thio-2-(1-naphthylmethyl)propionyl]norleucyl}amino-2-ethyl-4-hydroxy-7-methyloctanoic acid isobutylamide], the IC50 turned out to be 1.6 nM.

Take `CCCC[C@H](NC(=O)C(Cc1cccc2ccccc12)CS(=O)(=O)CC)C(=O)N[C@@H](CC(C)C)[C@@H](O)CC(CC)C(=O)NCC(C)C` (single isomer, unassigned) [Example 1, (2RS,4S,5S)-5-{L-N-[(2R or S)-3-ethylsulfonyl-2-(1-naphthylmethyl)propionyl]norleucyl}amino-2-ethyl-4-hydroxy-7-methyloctanoic acid isobutylamide]: half-maximal inhibition (IC50) required 0.5 nM.

`CCC(C[C@H](O)[C@H](CC(C)C)NC(=O)[C@H](Cc1c[nH]cn1)NC(=O)[C@H](Cc1cccc2ccccc12)CS(=O)(=O)CC)C(=O)NCC(C)C` (mixture of isomers) [Example 15, (2RS,4S,5S)-5-{L-N^α -[(2S)-3-ethylsulfonyl-2-(1-naphthylmethyl)propionyl]histidyl}amino-2-ethyl-4-hydroxy-7-methyloctanoic acid isobutylamide] returned an IC50 of 0.5 nM.

`CCCC[C@H](NC(=O)[C@H](Cc1ccccc1)CS(=O)(=O)c1ncccn1)C(=O)N[C@@H](CC1CCCCC1)[C@@H](O)[C@@H](O)CN1CCOCC1` [Example 44, (2S,3R,4S)-4-{L-N-[(2S)-2-benzyl-3-(pyrimidin-2-yl)sulfonylpropionyl]norleucyl}amino-5-cyclohexyl-1-morpholino-2,3-pentanediol] gave an IC50 of 3.8 nM.

Consider `CCCC[C@H](NC(=O)[C@H](Cc1ccccc1)CS(=O)(=O)C1CCCC1)C(=O)N[C@@H](CC1CCCCC1)[C@@H](O)[C@@H](O)C[N+]1([O-])CCOCC1` [Example 52, N-[(2S,3R,4S)-4-[L-N-[(2S)-3-cyclopentanesulfonyl-2-benzylpropionyl]norleucyl]amino-5-cyclohexyl-2,3-dihydroxypentyl]morpholine N-oxide], for which the midpoint of inhibition, the IC50, lay at 3 nM.

`CCCC[C@H](NC(=O)[C@@H](CSc1ncccn1)Cc1cccc2ccccc12)C(=O)N[C@@H](CC1CCCCC1)[C@@H](O)[C@@H](O)CN1CCOCC1` [Example 40, (2S,3R,4S)-4-{L-N-[(2S)-2-(1-naphthylmethyl)-3-(pyrimidin-2-yl)thiopropionyl]norleucyl}amino-5-cyclohexyl-1-morpholino-2,3-pentanediol] gave an IC50 of 5.3 nM.

`CCCC[C@H](NC(=O)[C@H](Cc1cccc2cccnc12)CS(=O)(=O)CC)C(=O)N[C@@H](CC(C)C)[C@@H](O)CC(CC)C(=O)NCC(C)C` (mixture of isomers) [Example 10, (2RS,4S,5S)-5-{L-N-[(2S)-3-ethylsulfonyl-2-(8-quinolylmethyl)propionyl]norleucyl}amino-2-ethyl-4-hydroxy-7-methyloctanoic acid isobutylamide] registered an IC50 of 2 nM.

For `CCCC[C@H](NC(=O)[C@@H](Cc1cccc2ccccc12)CS(=O)(=O)CC)C(=O)N[C@@H](CC(C)C)[C@@H](O)C[C@@H](CC)C(=O)NCCN1CCOCC1` (single isomer, unassigned) [Example 8, (2R or S,4S,5S)-5-{L-N-[(2R or S)-3-ethylsulfonyl-2-(1-naphthylmethyl)propionyl]norleucyl}amino-2-ethyl-4-hydroxy-7-methyloctanoic acid 2-morpholinoethylamide], inhibition was half-maximal at 1.5 nM (IC50).

For `CCCC[C@H](NC(=O)[C@@H](CSc1nncs1)Cc1cccc2ccccc12)C(=O)N[C@@H](CC(C)C)[C@@H](O)CC(CC)C(=O)NCC(C)C` (stereo partly drawn) [Example 5, (2RS,4S,5S),-5-{L-N-[(2S)-3-(1,3,4-thiadiazol-2-yl)thio-2-(1-naphthylmethyl)propionyl]norleucyl}amino-2-ethyl-4-hydroxy-7-methyloctanoic acid isobutylamide], the IC50 stood at 1.4 nM.

In turn, `CCCC[C@H](NC(=O)[C@H](Cc1cccc2ccccc12)C[S+]([O-])c1ncccn1)C(=O)N[C@@H](CC1CCCCC1)[C@@H](O)[C@@H](O)CN1CCOCC1` (single isomer, unassigned) [Example 42] displayed an IC50 of 3.6 nM.

For `CCCC[C@H](NC(=O)[C@H](Cc1ccccc1)CS(=O)(=O)Cc1ccco1)C(=O)N[C@@H](CC1CCCCC1)[C@@H](O)[C@@H](O)CN1CCOCC1` [Example 56, (2S,3R,4S)-4-{L-N-[(2S)-2-benzyl-3-furfurylsulfonylpropionyl]norleucyl}amino-5-cyclohexyl-1-morpholino-2,3-pentanediol], the IC50 was 2 nM.

Compound `CCCC[C@H](NC(=O)C(Cc1cccc2ccccc12)CS(=O)(=O)CCO)C(=O)N[C@@H](CC1CCCCC1)[C@@H](O)[C@@H](O)CN1CCOCC1` (single isomer, unassigned) [Example 36, (2S,3R,4S)-4-{L-N-[(2S or R)-3-(2-hydroxyethyl)sulfonyl-2-(1-naphthylmethyl)propionyl]norleucyl}amino-5-cyclohexyl-1-morpholino-2,3-pentanediol] showed an IC50 of 2.7 nM.
